These results are taken from publication PMC10716264 (Frontiers in Medicine, 2023).

Where two headings read alike, the source gives them in different places.

The test system of one data set is COVID-19. Also noted: method as in PMID 32568613. The note with it: unvaccinated symptomatic adults, Nirmatrelvir-based therapy; cited from earlier work.
Data set [1] deals with SARS-CoV-2 (2019-nCoV-WIV04). Nature of the data set: microbe, parasite or virus in culture. It counts as cell-based. The following applies: read-out: EC50 against SARS-CoV-2 virus.
The target of the next data set is SARS-CoV-2 3CLpro (Severe acute respiratory syndrome coronavirus 2, UniProt P0DTD1). Nature of the data set: biochemical.
The target in data set [2] is SARS-CoV-2 RdRp complex (nsp12-nsp7-nsp8) (Severe acute respiratory syndrome coronavirus 2, UniProt P0DTD1). It counts as biochemical.
Details of data set [3]: method as in earlier work. The following applies: co-administration with ritonavir; cited from earlier work.
Data set [4] concerns influenza A/California/07/09 (H1N1) strain. As to the kind of experiment: microbe, parasite or virus in culture. The following applies: read-out: EC50 (effective 50% concentration), MDCK cells. It counts as cell-based.
[5] abbreviates: Severe acute respiratory syndrome coronavirus 2, Vero C1008, 24 h.

`CC(C)(C)[C@H](NC(=O)C(F)(F)F)C(=O)N1C[C@H]2[C@@H]([C@H]1C(=O)N[C@H](C#N)C[C@@H]1CCNC1=O)C2(C)C` [Nirmatrelvir]: the “reduction of the risk of severe complications following COVID-19 infection” value in the data set with COVID-19 is 89%. `CCC(CC)COC(=O)[C@H](C)N[P@](=O)(OC[C@H]1O[C@@](C#N)(c2ccc3c(N)ncnn23)[C@H](O)[C@@H]1O)Oc1ccccc1` [Remdesivir]: the EC50 in data set [1] (setting [5]) worked out at 2 µM. Turning to `O=C(OC[C@H]1O[C@@H](OC(=O)c2cc(O)c(O)c(O)c2)[C@H](OC(=O)c2cc(O)c(O)c(O)c2)[C@@H](OC(=O)c2cc(O)c(O)c(O)c2)[C@@H]1OC(=O)c1cc(O)c(O)c(O)c1)c1cc(O)c(O)c(O)c1` [R-5, 1,2,3,4,6-penta-O-galloyl-β-D-glucose], in data set [1] (setting [5]), the EC50 was determined as 7.49 µM. On SARS-CoV-2 3CLpro (Rutan and components (Figure 4)), `O=C(OC[C@H]1O[C@@H](OC(=O)c2cc(O)c(O)c(O)c2)[C@H](OC(=O)c2cc(O)c(O)c(OC(=O)c3cc(O)c(O)c(O)c3)c2)[C@@H](OC(=O)c2cc(O)c(O)c(OC(=O)c3cc(O)c(O)c(O)c3)c2)[C@@H]1OC(=O)c1cc(O)c(O)c(OC(=O)c2cc(O)c(O)c(O)c2)c1)c1cc(O)c(O)c(O)c1` [R-8, 2,3,4-bis-O-galloyl-1,6-di-O-galloyl-β-D-glucose] returned a half-inhibitory concentration (IC50) of 1.34 µM.

For the compound `O=C(OC[C@H]1O[C@@H](OC(=O)c2cc(O)c(O)c(O)c2)[C@H](OC(=O)c2cc(O)c(O)c(O)c2)[C@@H](OC(=O)c2cc(O)c(O)c(OC(=O)c3cc(O)c(O)c(O)c3)c2)[C@@H]1OC(=O)c1cc(O)c(O)c(O)c1)c1cc(O)c(O)c(O)c1` [R-6, 3-bis-O-galloyl-1,2,4,6-tetra-O-galloyl-β-D-glucose], the 50% inhibitory concentration (IC50) against SARS-CoV-2 3CLpro was 9.92 µM. In data set [1] (Severe acute respiratory syndrome coronavirus 2, Vero C1008, Vero E6 cells, MOI 0.01, 24 h post-infection, viral copies by qRT-PCR), the EC50 was found to be 5.95 µM. As to “2,4-bis-O-galloyl-1,3,6-tri-O-galloyl-β-D-glucose [R-7]”, the 50% inhibitory concentration (IC50) against SARS-CoV-2 3CLpro was found to be 9.84 µM. For the same compound, the EC50 in data set [1] was 17.5 µM. For the compound `O=c1c(O)c(-c2cc(O)c(O)c(O)c2)oc2cc(O)cc(O)c12` [Myricetin], in data set [2] (250 μM), the “formation of the RdRp-RNA complex” value was “completely blocked”. For the same compound, in data set [2] (gel assay, compared with Rutan), the “inhibition of primer elongation” value was “showed inhibitory activity in higher concentrations”. Take `Cc1cccc(C)c1OCC(=O)N[C@@H](Cc1ccccc1)[C@@H](O)C[C@H](Cc1ccccc1)NC(=O)[C@H](C(C)C)N1CCCNC1=O` [Lopinavir]: the “increase of area under the plasma concentration-time curve” value in data set [3] is given as “more than 100 times”. Turning to `NC(=O)c1nc(F)c[nH]c1=O` [Favipiravir], the EC50 in data set [4] turned out to be 24 µM.
